# How the values were obtained:
# H460 carcinoma cells = experiment: Transwell cell migration (metastatic activity); type: cell-based, human; conditions: 100 μM NAC, 16 hours
# Method: Cell migration assays were performed in Transwells (Corning Inc., 8.0-μm pore size). For migration assay, 2·10^4 cells in serum-free medium were added to the upper wells. Media containing 10% FBS were added to the lower wells. Cells that migrated through the filter after 16 hours were stained with 0.2% crystal violet and counted using the software Image J.
# The Transwell test of cell migration has been utilized for this assay and the migration of H460 carcinoma cells has been measured in the presence of two different concentrations of AOX (5 and 10 μM) and compared to the effect of 100 μM N-acetyl cystein (NAC) as a positive control of cytosolic ROS production (FIG. 25).
# site IQ = experiment: ROS/H2O2 production, site targeted individually (96-well Amplex Red), 10 mM succinate alone; type: biochemical, rat; conditions: 0 to 80 μM; effect at concentrations as low as 2.5 μM
# Method: After freshly isolating mitochondria from rat heart, then measuring protein quantity of the mitochondrial suspension, H2O2 production in response to the exogenous addition of increasing concentrations of AOL, AOX and Oltipraz was measured fluorimetrically with Amplex Red and horseradish peroxidase (HRP).
# The two major sites of mitochondrial ROS/H2O2 production were targeted individually using the combination of succinate (energy substrate of respiratory complex 2) and known inhibitors of respiratory chain, namely for site IQ, 10 mM succinate alone (CCCP as positive control) and for site IIIQouter, 10 mM succinate, 4 μM rotenone and 2.5 μM antimycin A (myxothiazol as positive control). These “reaction” solutions were designed to generate maximal rates of ROS/H2O2 production predominantly from a single site within the chain (Quinlan et al. 2013. Redox Biol. 1:304-12).
# For measurement, a working solution of 50 μM Amplex red reagent and 20 μg/ml HRP was mixed to the reaction buffer into the corresponding wells of a 96-well plate (Greiner 96 F-bottom), in the absence or presence of increasing concentrations (from 0 to 80 μM) of AOL, AOX or Oltipraz. Addition of mitochondria to a final concentration of 0.125 mg/mL per well initiated the assay. The appropriate total volume per microplate well was 200 μL.
# Plates were incubated in the dark at room temperature for 20-25 minutes. A double orbital shaking (100 rpm-3 seconds) was applied before reading the endpoint fluorescence values on a CLARIOstar plate reader (BMG LABTECH GmbH, Germany). In fact, H2O2 reacts with Amplex Red in a 1:1 stoichiometry, yielding the fluorescent compound resorufin that was analyzed using the following optic settings (excitation wavelength at 546-20 nm; emission at 600-40 nm; gain: 750).
# Also, an H2O2 standard curve, with concentrations ranging from 0 to 5 μM, was prepared in the experimental buffer that consisted in (in mM): 140 sucrose, 100 KCl, 1 EGTA, 20 MgCl2, 10 KH2PO4, and 1 g/L (w/v) BSA essentially fatty acid free (pH 7.2). […]
# NAD(P)H oxidase = experiment: Non-mitochondrial ROS/H2O2 production by NAD(P)H oxidase (Amplex Red); type: biochemical; conditions: 10 to 100 μM; no mitochondria
# Method: Rates of ROS/H2O2 production from heart mitochondria were assessed through the oxidation of the colorless, non-fluorescent indicator Amplex Red in the presence of exogenous horseradish peroxidase (HRP, EC 1.11.1.7, Sigma). H2O2 reacts with Amplex Red in a 1:1 stoichiometry, yielding the fluorescent compound resorufin (excitation: 560 nm; emission: 585 nm) which is stable once formed. Fluorescence was measured continuously with a spectro-fluorometer equipped with temperature control and stirring (SAFAS Xenius, Monaco). Isolated mitochondria (0.1 mg/mL) were incubated in the same experimental buffer than previously, supplemented with 15 μM Amplex Red and 10 μg/mL HRP. Glutamate (5 mM)/malate (2.5 mM) together with succinate (5 mM) were used as complex I and complex II substrates, respectively. Experiments were conducted under non-phosphorylating conditions in the presence of 15 μM atractyloside, i.e., under state IV conditions where […]. Afterwards, rotenone (1.5 μM), antimycin A (2 μM), and myxothiazol (0.2 μM) were sequentially added to inhibit the redox centers within the electron transfer chain (FIG. 2), namely sites IQ, IF (with rotenone), IIIQi (with antimycin A) and IIIQO (with myxothiazol). Assay was finally calibrated with known amounts of H2O2 (steps of 300 nM), in the presence of all relevant compounds, including AOL. The control test of the absence of effect of AOL on the Amplex Red assay itself and NAD(P)H oxidase ROS/H2O2 production was carried out in the absence of cardiac mitochondria and the presence of NAD(P)H oxidase (EC 1.6.3.3, 5 mU/mL, Sigma) and NADH (100 μM) solutions.
# The specificity of AOL was further tested in vitro using the peroxidase-Amplex Red system utilized for the measurement of ROS/H2O2 by mitochondria, which in fact measures the appearance of H2O2 by the oxidation of Amplex Red to the fluorescent resorufin (see FIG. 4). In the absence of mitochondria and by adding instead a H2O2-producing system to the measuring system, it was possible to test the effect of AOL on this system. This has been carried out by using commercial NAD(P)H oxidase which produces H2O2 in the presence of added NAD(P)H and measuring the reduction of Amplex Red to resorufin (FIG. 4).
# Isolated mitochondria (0.1 mg/mL) were incubated in the same experimental buffer than previously, supplemented with 15 μM Amplex Red and 10 μg/mL HRP. Glutamate (5 mM)/malate (2.5 mM) together with succinate (5 mM) were used as complex I and complex II substrates, respectively. Experiments were conducted under non-phosphorylating conditions in the presence of 15 μM atractyloside. Afterwards, rotenone (1.5 μM), antimycin A (2 μM), and myxothiazol (0.2 μM) were sequentially added to inhibit the redox centers within the electron transfer chain (see FIG. 2), namely sites IQ, IF (with rotenone), IIIQi (with antimycin A) and IIIQO (with myxothiazol). Assay was finally calibrated with known amounts of H2O2 (steps of 300 nM), in the presence of all relevant compounds, including AOX. The control test of the absence of effect of AOL, AOX and Oltipraz on the Amplex Red assay itself and NAD(P)H oxidase […] production was carried out in the absence of cardiac mitochondria and the presence of NAD(P)H oxidase (EC 1.6.3.3, 5 mU/mL, Sigma) and NADH (100 μM) solutions.
# The mechanism of action of AOX was further tested in vitro using the peroxidase-Amplex Red system utilized for the measurement of ROS/H2O2 by mitochondria, which in fact measures the appearance of H2O2 by the oxidation of Amplex Red to the fluorescent resorufin (FIG. 22). In the absence of mitochondria and by adding instead a H2O2-producing system to the assay, it was possible to test the effect of AOX on this non-mitochondrial superoxide/H2O2 production. This has been carried out by using commercial NAD(P)H oxidase which produces H2O2 in the presence of added NAD(P)H and measuring the reduction of Amplex Red to resorufin. […]
SMILES,metastatic activity (cells crossing the membrane) (H460 carcinoma cells),inhibition of ROS production in site IQ (site IQ),effect on ROS measurement with NAD(P)H oxidase (NAD(P)H oxidase)
"CC(=O)N[C@@H](CS)C(=O)O [NAC, N-acetyl cysteine]",huge increase in metastatic activity,,
Cc1c(-c2cnccn2)ssc1=S [Oltipraz],,only a poor effect,constantly decreased the amount of ROS measured
